Data on three molecules can be found in patent US20110144206A1, “USE OF A COX-2 INHIBITOR FOR THE TREATMENT OF A COX-2 DEPENDENT DISORDER IN A PATIENT NOT CARRYING HLA ALLELES ASSOCIATED WITH HEPATOTOXICITY” (priority 2008, published 2011).

SMILES strings stand for the structures.

A short description of data set [1]: Liver enzyme (ALT/AST) elevation rates in TARGET study. The data set is classed as in vivo, human. The procedure: Affected patients and matched controls are identified from a large 52-week international, multicenter, stratified, randomized, double-blind, double-dummy, parallel group clinical study. Most patients are administered one 400 mg dose of lumiracoxib each day. Patients are identified as affected cases based upon clinical measurements of elevated liver enzymes greater than or equal to 3 times ULN following administration of lumiracoxib. Patients are identified as control cases based upon clinical measurements of elevated liver enzymes less than 3 times ULN following administration of lumiracoxib, and control patients are matched to affected cases based upon clinical trial, country (where possible), sex, race and age (within 2 years, where possible). A total of 137 cases and 577 matched controls are used for analysis.
Kaplan-Meier incidence estimates are calculated for the DQA1*0102 carriers and non-carriers for >3xULN (FIG. 4) and >5xULN (FIG. 5) ALT/AST elevations.

The conditions of data set [2]: cited from earlier work.
[3] abbreviates: TARGET, crude rate, whole treatment group.
Setting [4] is: TARGET, crude rate, whole treatment group (Hy's law cases).
The mark [5] stands for this setting: TARGET, patients with DNA and excluding DQA1*0102 patients, N ~3538 estimated.

In the case of `COc1ccc2cc([C@H](C)C(=O)O)ccc2c1` [Naproxen], in data set [1] (setting [3]), the “ALT/AST >3x ULN” value is on record as 21 (0.5) n (%), the “ALT/AST >5x ULN” value is recorded as 6 (0.1) n (%) and the “ALT/AST >8x ULN” value was 3 (0.1) n (%). Also, in data set [1] (setting [4]), the “ALT/AST >3x ULN + bilirubin ≧2xULN” value was 2 (0.04) n (%). For the same molecule, the “Hy's law cases” value in data set [1] (TARGET, per treatment arm) worked out at 2 cases.
Turning to `CC(C)Cc1ccc(C(C)C(=O)O)cc1` (centres unmarked) [Ibuprofen], in data set [1] (setting [3]), the “ALT/AST >3x ULN” value is listed as 35 (0.8) n (%), the “ALT/AST >5x ULN” value is reported as 13 (0.3) n (%) and the “ALT/AST >8x ULN” value is 4 (0.1) n (%). The “ALT/AST >3x ULN + bilirubin ≧2xULN” value in data set [1] (setting [4]) is recorded as 2 (0.05) n (%). Further, the “Hy's law cases” value in data set [1] (TARGET, per treatment arm) stood at 2 cases.
Turning to `Cc1ccc(Nc2c(F)cccc2Cl)c(CC(=O)O)c1` [Lumiracoxib, 2-[(2-chloro-6-fluorophenyl)amino]-5-methyl-benzeneacetic acid], the figures for the “Kaplan-Meier incidence estimates of >3xULN and >5xULN ALT/AST elevations” value in data set [1] (DQA1*0102 carriers) and in data set [1] (DQA1*0102 non-carriers) were “dramatic increase in the incidence after week 13” and “do not show a sharp increase after week 13”, respectively. In addition, the “Hy's law cases” value in data set [1] (TARGET, DQA1*0102-negative patients in the lumiracoxib arm) is listed as “no cases”; in data set [1] (TARGET, per treatment arm), “Nine”. Besides, the “ALT/AST >3x ULN” value in data set [1] (setting [3]) is given as 236 (2.6) n (%); in data set [1] (setting [5]), 36 (1.0) n (%). Also, the “ALT/AST >5x ULN” value in data set [1] (setting [3]) is 113 (1.3) n (%); in data set [1] (setting [5]) it was 10 (0.3) n (%). Besides, the “ALT/AST >8x ULN” value was 56 (0.62) n (%) in data set [1] (setting [3]) and 3 (0.1) n (%) in data set [1] (setting [5]). In addition, the figures for the “ALT/AST >3x ULN + bilirubin ≧2xULN” value in data set [1] (setting [4]) and in data set [1] (setting [5]) were 9 (0.10) n (%) and 0 (0) n (%), respectively. The “ULN ALT/AST rates compared to the lumiracoxib arm” value in data set [1] (TARGET, lumiracoxib DQA1*0102-negative patients) is “reduced considerably and are comparable to the other NSAIDs”. Further, the “retention in inflamed tissues” value in data set [2] (inflamed tissues) is reported as “up to 24 hours”. Also, the “time to maximum plasma concentrations after dosing” value in data set [2] (oral) was “two”. In addition, the “elimination half-life from plasma” value in data set [2] (plasma) was “four”.
